The values that follow come from ChEMBL document CHEMBL3414453, “Design and optimization of hybrid of 2,4-diaminopyrimidine and arylthiazole scaffold as anticancer cell proliferation and migration agents” (Eur J Med Chem, 2015).

pIC50: −log10 of the molar value.

What is called pIC50 is −log10 of the IC50, conventionally taken in molar units.

One assay relates to MCF7. The assay can be described thus: Cytotoxicity against human MCF7 cells assessed as growth inhibition after 48 hrs by sulforhodamine B assay. The assay is classed as functional, cell-based. The settings on record: MCF7, 48 h.
The test system of another assay is MDA-MB-231. Description: Cytotoxicity against human MDA-MB-231 cells assessed as growth inhibition after 48 hrs by sulforhodamine B assay. The class given is functional, cell-based. To be noted: MDA-MB-231, 48 h. On the technique in general: In SRB staining, fixed cells bind dye roughly in proportion to their protein.

`Cc1nc(Nc2ncc(C(=O)Nc3c(C)cccc3Cl)s2)cc(N2CCN(CCO)CC2)n1` [DASATINIB]: the results for the pIC50 in the assay on MCF7 and with MDA-MB-231 were 5.09 and 5.95, respectively.
